Data from patent publication US7135462B2, “Hepatitis C virus inhibitors” (priority 2003, dated 2006).
Like-named read-outs stand apart in the source and are kept apart here.

Experiments:
[1] = target: T1, HCV NS3/4A protease complex (BMS strain) (UniProt P27958, C1454S/C1711G, species not given); assay: Recombinant HCV NS3/4A protease complex FRET peptide assay; assay type: biochemical, Hepatitis C virus (HCV), genotype 1a; settings: NS3/4A BMS strain, activity range class
T1 construct: for H77 and J4L6S; fused on or other part: Three-lysine solubilising tail at the C-terminus of NS4A
Description: Recombinant HCV NS3/4A Protease Complex FRET Peptide Assay
Serum from an HCV-infected patient was obtained from Dr. T. Wright, San Francisco Hospital. An engineered full-length cDNA (compliment deoxyribonucleic acid) template of the HCV genome (BMS strain) was constructed from DNA fragments obtained by reverse transcription-PCR (RT-PCR) of serum RNA (ribonucleic acid) and using primers selected on the basis of homology between other genotype 1a strains.
The H77 and J4L6S strains were used for production of recombinant NS3/4A protease complexes. […] Briefly, a three-lysine solubilizing tail was added at the 3′-end of the NS4A coding region. […] Briefly, the NS3/4A protease complex expression was induced with 0.5 millimolar (mM) Isopropyl β-D-1-thiogalactopyranoside (IPTG) for 22 hours (h) at 20° C. […] The cells were resuspended in lysis buffer (10 mL/g) consisting of 25 mM N-(2-Hydroxyethyl)piperazine-N′-(2-Ethane Sulfonic acid) (HEPES), pH 7.5, 20% glycerol, 500 mM Sodium Chloride (NaCl), 0.5% Triton X-100, 1 microgram/milliliter (“μg/mL”) lysozyme, 5 mM Magnesium Chloride (MgCl2), 1 μg/ml DnaseI, 5 mM β-Mercaptoethanol (βME), Protease inhibitor—Ethylenediamine Tetraacetic acid (EDTA) free (Roche), homogenized and incubated for 20 minutes (min) at 4° C. The homogenate was sonicated and clarified by ultra-centrifugation at 235000 g for 1 h at 4° C. Imidazole was added to the supernatant to a final concentration of 15 mM and the pH adjusted to 8.0. The crude protein extract was loaded on a Nickel—Nitrilotriacetic acid (Ni-NTA) column pre-equilibrated with buffer B (25 mM HEPES, pH 8.0, 20% glycerol, 500 mM NaCl, 0.5% Triton X-100, 15 mM imidazole, 5 mM βME). The sample was loaded at a flow rate of 1 mL/min. The column was washed with 15 column volumes of buffer C (same as buffer B except with 0.2% Triton X-100). The protein was eluted with 5 column volumes of buffer D (same as buffer C except with 200 mM Imidazole).
NS3/4A protease complex-containing fractions were pooled and loaded on a desalting column Superdex-S200 pre-equilibrated with buffer D (25 mM HEPES, pH 7.5, 20% glycerol, 300 mM NaCl, 0.2% Triton X-100, 10 mM βME). Sample was loaded at a flow rate of 1 mL/min. NS3/4A protease complex-containing fractions were pooled and concentrated to approximately 0.5 mg/ml.
The enzyme was stored at −80° C., thawed on ice and diluted prior to use in assay buffer. […] The sequence of this peptide is loosely based on the NS4A/NS4B natural cleavage site for the HCV NS3 protease except there is an ester linkage rather than an amide bond at the cleavage site. The peptide substrate was incubated with one of the three recombinant NS3/4A protease complexes, in the absence or presence of a compound of the present invention, and the formation of fluorescent reaction product was followed in real time using a Cytofluor Series 4000.
The reagents were as follow: HEPES and Glycerol (Ultrapure) were obtained from GIBCO-BRL. Dimethyl Sulfoxide (DMSO) was obtained from Sigma. β-Mercaptoethanol was obtained from Bio Rad.
Assay buffer: 50 mM HEPES, pH 7.5; 0.15 M NaCl; 0.1% Triton; 15% Glycerol; 10 mM βME. Substrate: 2 μM final concentration (from a 2 mM stock solution in DMSO stored at −20° C.). HCV NS3/4A protease type 1a (1b), 2–3 nM final concentration (from a 5 μM stock solution in 25 mM HEPES, pH 7.5, 20% glycerol, 300 mM NaCl, 0.2% Triton-X100, 10 mM βME).
The assay was performed in a 96-well polystyrene black plate from Falcon.

[2] = system: HCV replicon in Huh7 cells; assay: microbe, parasite or virus in culture; assay type: cell-based, strain 1b; settings: Hepatitis C virus, Huh-7, 96 h; Huh7 cells expressing HCV replicon, 4 days; activity range class
Description: Generation of HCV Replicon
This system enabled us to evaluate the effects of our HCV Protease compounds on HCV RNA replication. Briefly, using the HCV strain 1b sequence described in the Lohmann paper (Assession number: AJ238799), an HCV cDNA was generated encoding the 5′ internal ribosome entry site (IRES), the neomycin resistance gene, the EMCV (encephalomyocarditis viurs)-IRES and the HCV nonstructural proteins, NS3-NS5B, and 3′ non-translated region (NTR). In vitro transcripts of the cDNA were transfected into the human hepatoma cell line, Huh7. […] Resulting cell lines were characterized for positive and negative strand RNA production and protein production over time.
Huh7 cells, constitutively expressing the HCV replicon, were grown in Dulbecco's Modified Eagle Media (DMEM) containing 10% Fetal calf serum (FCS) and 1 mg/ml G418 (Gibco-BRL). Cells were seeded the night before (1.5×10^4 cells/well) in 96-well tissue-culture sterile plates. Compound and no compound controls were prepared in DMEM containing 4% FCS, 1:100 Penicillin/Streptomysin, 1:100 L-glutamine and 5% DMSO in the dilution plate (0.5% DMSO final concentration in the assay). Compound/DMSO mixes were added to the cells and incubated for 4 days at 37° C. After 4 days, plates were rinsed thoroughly with Phosphate-Buffered Saline (PBS) (3 times 150 μl). The cells were lysed with 25 μl of a lysis assay reagent containing the FRET peptide (RET S1, as described for the in vitro enzyme assay). The lysis assay reagent was made from 5× cell Luciferase cell culture lysis reagent (Promega #E153A) diluted to 1× with distilled water, NaCl added to 150 mM final, the FRET peptide diluted to 10 μM final from a 2 mM stock in 100% DMSO. The plate was then placed into the Cytofluor 4000 instrument which had been set to 340 nm excitation/490 nm emission, automatic mode for 21 cycles and the plate read in a kinetic mode. EC50 determinations were carried out as described for the IC50 determinations. […]
The percentage inhibition was calculated using the formula below: […]
The values were graphed and analyzed using XLFit to obtain the EC50 value.

Structure (SMILES): C=C[C@@H]1C[C@]1(NC(=O)[C@@H]1C[C@@H](Oc2nccc3ccccc23)CN1C(=O)[C@@H](NC(=O)Oc1ccc(C)cc1)C(C)(C)C)C(=O)NS(=O)(=O)C1(Cc2ccccc2)CC1 [Cmpd 200]
- IC50 ([1]; read-out: IC50): 1 to 10 µM

Structure (SMILES): C=C[C@@H]1C[C@]1(NC(=O)[C@@H]1C[C@@H](Oc2nccc3ccccc23)CN1C(=O)[C@@H](NC(=O)Oc1ccccc1)C(C)(C)C)C(=O)NS(=O)(=O)C1(Cc2ccccc2)CC1 [Cmpd 201]
- IC50 ([1]; read-out: IC50): 1 to 10 µM

Structure (SMILES): C=C[C@@H]1C[C@]1(NC(=O)[C@@H]1C[C@@H](Oc2nccc3ccccc23)CN1C(=O)[C@@H](NC(=O)Oc1ccc(F)cc1)C(C)(C)C)C(=O)NS(=O)(=O)C1(Cc2ccccc2)CC1 [Cmpd 202]
- IC50 ([1]; read-out: IC50): 1 to 10 µM

Structure (SMILES): C=C[C@@H]1C[C@]1(NC(=O)[C@@H]1C[C@@H](Oc2nccc3ccccc23)CN1C(=O)[C@@H](NC(=O)Oc1ccc(OC)cc1)C(C)(C)C)C(=O)NS(=O)(=O)C1(Cc2ccccc2)CC1 [Cmpd 203]
- IC50 ([1]; read-out: IC50): 1 to 10 µM

Structure (SMILES): C=C[C@@H]1C[C@]1(NC(=O)[C@@H]1C[C@@H](Oc2nccc3ccccc23)CN1C(=O)[C@@H](NC(=O)OCCOC)C(C)(C)C)C(=O)NS(=O)(=O)C1(Cc2ccccc2)CC1 [Cmpd 204]
- IC50 ([1]; read-out: IC50): 1 to 10 µM

Structure (SMILES): C=C[C@@H]1C[C@]1(NC(=O)[C@@H]1C[C@@H](Oc2nccc3ccccc23)CN1C(=O)[C@@H](NC(=O)OCC(C)(C)C)C(C)(C)C)C(=O)NS(=O)(=O)C1(Cc2ccccc2)CC1 [Cmpd 205]
- IC50 ([1]; read-out: IC50): 0.1 to 1 µM
- EC50 [2]: 0.1 to 1 µM

Structure (SMILES): C=C[C@@H]1C[C@]1(NC(=O)[C@@H]1C[C@@H](Oc2nccc3ccccc23)CN1C(=O)[C@@H](NC(=O)OCCF)C(C)(C)C)C(=O)NS(=O)(=O)C1(Cc2ccccc2)CC1 [Cmpd 206]
- IC50 ([1]; read-out: IC50): 0.1 to 1 µM

Structure (SMILES): C=C[C@@H]1C[C@]1(NC(=O)[C@@H]1C[C@@H](Oc2nccc3ccccc23)CN1C(=O)[C@@H](NC(=O)Oc1ccccc1OC)C(C)(C)C)C(=O)NS(=O)(=O)C1(Cc2ccccc2)CC1 [Cmpd 207]
- IC50 ([1]; read-out: IC50): 1 to 10 µM

Structure (SMILES): C=C[C@@H]1C[C@]1(NC(=O)[C@@H]1C[C@@H](Oc2nccc3ccccc23)CN1C(=O)[C@@H](NC(=O)Oc1cccc(C(F)(F)F)c1)C(C)(C)C)C(=O)NS(=O)(=O)C1(Cc2ccccc2)CC1 [Cmpd 208]
- IC50 ([1]; read-out: IC50): 1 to 10 µM

Structure (SMILES): C=C[C@@H]1C[C@]1(NC(=O)[C@@H]1C[C@@H](Oc2nccc3ccccc23)CN1C(=O)[C@@H](NC(=O)O[C@@H]1C[C@H](C)CC[C@H]1C(C)C)C(C)(C)C)C(=O)NS(=O)(=O)C1(Cc2ccccc2)CC1 [Cmpd 209]
- IC50 ([1]; read-out: IC50): 10 to 100 µM
- EC50 [2]: 1 to 10 µM

Structure (SMILES): C=C[C@@H]1C[C@]1(NC(=O)[C@@H]1C[C@@H](Oc2nccc3ccccc23)CN1C(=O)[C@@H](NC(=O)CC(C)(C)C)C(C)(C)C)C(=O)NS(=O)(=O)C1(Cc2ccccc2)CC1 [Cmpd 210]
- IC50 ([1]; read-out: IC50): 1 to 10 µM

Structure (SMILES): C=C[C@@H]1C[C@]1(NC(=O)[C@@H]1C[C@@H](Oc2nccc3ccccc23)CN1C(=O)[C@@H](NC(=O)COC)C(C)(C)C)C(=O)NS(=O)(=O)C1(Cc2ccccc2)CC1 [Cmpd 211]
- IC50 ([1]; read-out: IC50): 1 to 10 µM

Structure (SMILES): C=C[C@@H]1C[C@]1(NC(=O)[C@@H]1C[C@@H](Oc2nccc3ccccc23)CN1C(=O)[C@@H](NC(=O)CCOC)C(C)(C)C)C(=O)NS(=O)(=O)C1(Cc2ccccc2)CC1 [Cmpd 212]
- IC50 ([1]; read-out: IC50): 1 to 10 µM

Structure (SMILES): C=C[C@@H]1C[C@]1(NC(=O)[C@@H]1C[C@@H](Oc2nccc3ccccc23)CN1C(=O)[C@@H](NC(=O)[C@@H]1COc2ccccc2O1)C(C)(C)C)C(=O)NS(=O)(=O)C1(Cc2ccccc2)CC1 [Cmpd 213]
- IC50 ([1]; read-out: IC50): 10 to 100 µM

Structure (SMILES): C=C[C@@H]1C[C@]1(NC(=O)[C@@H]1C[C@@H](Oc2nccc3cc(OC)ccc23)CN1C(=O)[C@@H](NC(=O)NC(C)(C)C)C(C)(C)C)C(=O)NS(=O)(=O)C1(C)CC1 [Cmpd 217]
- IC50 [1]: < 0.1 µM
- EC50 [2]: < 0.1 µM

Structure (SMILES): C=C[C@@H]1C[C@]1(NC(=O)[C@@H]1C[C@@H](Oc2nccc3cc(OC)ccc23)CN1C(=O)[C@@H](NC(=O)NC1CCCC1)C(C)(C)C)C(=O)NS(=O)(=O)C1(C)CC1 [Cmpd 218]
- IC50 ([1]; read-out: IC50): < 0.1 µM
- EC50 [2]: < 0.1 µM

Structure (SMILES): C=C[C@@H]1C[C@]1(NC(=O)[C@@H]1C[C@@H](Oc2nccc3cc(OC)ccc23)CN1C(=O)[C@@H](NC(=O)NC(C)(C)CC)C(C)(C)C)C(=O)NS(=O)(=O)C1(C)CC1 [Cmpd 219]
- IC50 ([1]; read-out: IC50): < 0.1 µM
- EC50 [2]: < 0.1 µM

Structure (SMILES): C=C[C@@H]1C[C@]1(NC(=O)[C@@H]1C[C@@H](Oc2nccc3cc(OC)ccc23)CN1C(=O)[C@@H](NC(=O)N1CCC1)C(C)(C)C)C(=O)NS(=O)(=O)C1(C)CC1 [Cmpd 220]
- IC50 ([1]; read-out: IC50): < 0.1 µM
- EC50 [2]: 0.1 to 1 µM

Structure (SMILES): C=C[C@@H]1C[C@]1(NC(=O)[C@@H]1C[C@@H](Oc2nccc3cc(OC)ccc23)CN1C(=O)[C@@H](NC(=O)OC(C)(C)C)C(C)(C)C)C(=O)NS(=O)(=O)C1(CC)CC1 [Cmpd 300, {1-[2-[1-(1-Ethyl-cyclopropanesulfonylaminocarbonyl)-2-vinyl-cyclopropylcarbamoyl]-4-(6-methoxy-isoquinolin-1-yloxy)-pyrrolidine-1-carbonyl]-2,2-dimethyl-propyl}-carbamic acid tert-butyl ester]
- IC50 ([1]; read-out: IC50): < 0.1 µM
- EC50 [2]: < 0.1 µM

Structure (SMILES): C=C[C@@H]1C[C@]1(NC(=O)[C@@H]1C[C@@H](Oc2nccc3cc(OC)ccc23)CN1C(=O)[C@@H](NC(=O)OC(C)(C)C)C(C)(C)C)C(=O)NS(=O)(=O)C1(C)CC1 [Cmpd 301, (1-{4-(6-Methoxy-isoquinolin-1-yloxy)-2-[1-(1-methyl-cyclopropanesulfonylaminocarbonyl)-2-vinyl-cyclopropylcarbamoyl]-pyrrolidine-1-carbonyl}-2,2-dimethyl-propyl)-carbamic acid tert-butyl ester]
- IC50 ([1]; read-out: IC50): < 0.1 µM
- EC50 [2]: < 0.1 µM

Structure (SMILES): C=C[C@@H]1C[C@]1(NC(=O)[C@@H]1C[C@@H](Oc2nc(-c3ccccc3)nc3ccccc23)CN1C(=O)[C@@H](N)C(C)(C)C)C(=O)NS(=O)(=O)C1(Cc2ccccc2)CC1 [Cmpd 603]
- IC50 ([1]; read-out: IC50): 1 to 10 µM
